According to US20240189435A1, “NOVEL PEPTIDE-OLIGONUCLEOTIDE CONJUGATE AND USE THEREOF” (KOREA INSTITUTE OF SCIENCE AND TECHNOLOGY, priority 2021, published 2024):

What was measured:
B16 cells [1] = test: Cytotoxicity in B16 cells, cell counting Kit-8 (CCK-8); format: cell-based; details: 300 nM, 24 hours
Protocol: (2) To determine the cytotoxicity of this substance, B16 cells were treated with 300 nM Pep-21 for 24 hours and the cytotoxicity was confirmed using cell counting Kit-8 (CCK-8).

miRNA-21 [2] = test: RT-PCR of miRNA-21 in M2ϕ; format: cell-based; details: 300 nM, 18 hours
Protocol: (§1) Real-time polymerase chain reaction (RT-PCR) was performed to determine whether or not treatment with Pep-21 inhibited the expression of miRNA-21. M2ϕ was treated with 300 nM of Pep-21 for 18 hours, RNA was isolated and then real-time polymerase chain reaction (RT-PCR) was performed.

miRNA-21 [3] = test: Agarose gel electrophoresis of binding to miRNA-21
Protocol: The binding affinity of miRNA-21 and Pep-21 was evaluated through agarose gel electrophoresis, compared to Free-21.
(§2) Synthetic Pep-21 (10 pmole) was reacted with miRNA-21 and negative control miRNA in 100 μL of PBS under the same conditions as above, in other words, at 37° C. for 1 hour and then whether or not pep-21 recognizes and binds to a specific sequence of miRNA-21 was identified by agarose gel electrophoresis.

miRNA-21 [4] = test: RT-PCR of miRNA-21 in treated cancer tissue; format: in vivo, mice; details: B16 tumor tissue, compared to the control group
Source text: (§3) On day 12 after tumor inoculation (tumor size of about 70 mm^3), PBS, peptide, Free-21, and Pep-21 were intratumorally injected three times at intervals of three days.

B16 melanoma = test: Anti-tumor effect in tumor animal model; format: in vivo, mice; details: 500 pmole intratumorally, 3 times at 3-day intervals, from day 12 after tumor inoculation
Source text: as §3

[5] = system: M2ϕ (M2 bone marrow-derived macrophages); test: Cellular uptake in M2 bone marrow-derived macrophages, fluorescence microscopy; format: cell-based; details: 300 nM Cy5-labeled, 6 hours, compared to Free-21
B16 cells [6] = test: Scratch-wound healing assay in B16 cells; format: cell-based; details: 300 nM in serum free media 48 hours, observed 72 hours after wounding, compared to the control group
Protocol: A scratch-wound healing assay was performed in order to analyze cell migration.
B16 cells were wounded using a 200 μL pipette tip, treated with 300 nM Pep-21 in serum free media for 48 hours, and then stabilized in fresh growth media for 24 hours.

[7] = system: B16 melanoma tumor tissue; test: TUNEL assay on excised tumor tissue; format: in vivo, mice; details: 21 days, compared to the control group
Protocol: (§4) 21 days after the animal test, the excised tumor tissue was analyzed by immunofluorescence.
TUNEL assay was performed on tumor tissue to determine the degree of apoptosis.

[8] = system: matrix metalloproteinase-2 (MMP2); test: Western blot in B16 cells, MMP2; format: cell-based; details: 300 nM, serum free media, 24 hours
Protocol: (§5) B16 cells were treated with 300 nM Pep-21 in serum free media for 24 hours, protein assay was performed and western blot was performed.
(§6) miRNA-21 related markers: programmed cell death 4 (PDCD4), matrix metalloproteinase-2 (MMP2), tissue inhibitor of metalloproteinase-3 (TIMP3)

iNOS (M1 marker) = test: Immunofluorescence of tumor-associated macrophages, iNOS; format: in vivo, mice; details: tumor-associated macrophages in excised tumor tissue, 21 days
Protocol: (§7) 21 days after the animal test, tumor-associated macrophages infiltrating the excised tumor tissue were analyzed by immunofluorescence (IF).

[9] = system: programmed cell death 4 (PDCD4); test: Western blot in B16 cells, PDCD4; format: cell-based; details: 300 nM, serum free media, 24 hours
Protocol: as §5, §6

negative control miRNA = test: Agarose gel electrophoresis of sequence specificity with negative control miRNA; format: binding; details: 10 pmole in 100 μL PBS, 37° C., 1 hour
Protocol: as §2
Whether or not Pep-21 recognizes and binds to a specific sequence to miRNA-21 was determined using the negative control miRNA.

IL-12 = test: RT-PCR of inflammatory cytokines in M2ϕ, IL-12; format: cell-based; details: 300 nM, 18 hours
Protocol: as §1
(§8) In addition, the expression level of inflammatory cytokines was determined through RT-PCR.

CD31 = CD31 immunofluorescence of excised tumor tissue; format: in vivo, mice; details: 21 days, compared to the control group
Protocol: as §4
In addition, immunofluorescence was performed using CD31, an angiogenesis marker.

miRNA-21 [10] = test: RT-PCR of miRNA-21 in B16 cells; format: cell-based; details: 300 nM, 18 hours
Protocol: (1) Real-time polymerase chain reaction (RT-PCR) was performed to determine whether or not miRNA-21 expression was inhibited by treatment with Pep-21. B16 cells were treated with 300 nM of Pep-21 for 18 hours, RNA was isolated, cDNA was synthesized, and then real-time polymerase chain reaction (RT-PCR) was performed using miRNA-21 primer.

Arginasel (M2 marker) = test: Immunofluorescence of tumor-associated macrophages, Arginase1; format: in vivo, mice; details: tumor-associated macrophages in excised tumor tissue, 21 days
Protocol: as §7

[11] = system: tissue inhibitor of metalloproteinase-3 (TIMP3); test: Western blot in B16 cells, TIMP3; format: cell-based; details: 300 nM, serum free media, 24 hours
Protocol: as §5, §6

TNF-α = test: RT-PCR of inflammatory cytokines in M2ϕ, TNF-α; format: cell-based; details: 300 nM, 18 hours
Protocol: as §1, §8

B16 melanoma cells = test: Cellular uptake in B16 melanoma cells, fluorescence microscopy; format: cell-based; details: B16, 300 nM Cy5-labeled, 6 hours
Protocol: Melanoma cells (B16) were treated with 300 nM miRNA-21 labeled with Cy5 fluorescent dye for 6 hours and the degree of intracellular uptake was then observed with a fluorescence microscope.

Pep-21: Azide PDL1-binding peptide (N3-NYSKPTDRQYHF, d-form) click-conjugated to DBCO-anti-miR-21 DNA 5′-TCAACATCAGTCTGATAAGCTA-3′
cytotoxicity (CCK-8) (B16 cells [1]): almost no cytotoxicity | expression of miRNA-21 (RT-PCR) (miRNA-21 [2]): inhibited expression of miRNA-21 | binding affinity to miRNA-21 (gel electrophoresis) (miRNA-21 [3]; 10 pmole annealed with miR-21 (0, 0.25, 0.5, 0.75 and 1) in 100 μL PBS, 37° C., 1 hour): binding affinity increased as the concentration increased | band shift upon reaction with miRNA-21 (miRNA-21 [3]; 10 pmole in 100 μL PBS, 37° C., 1 hour): a band shift was observed | sequence-specific recognition of miRNA-21 versus negative control miRNA (miRNA-21 [3]; conclusion from the band shift test): selectively binds to miRNA-21 | amount of miRNA-21 expressed in cancer tissue (RT-PCR) (miRNA-21 [4]): reduced compared to the control group | cancer growth (B16 melanoma): inhibit cancer growth | degree of uptake into cells [5]: successfully delivered anti-21 to the cytoplasm | cancer cell migration (B16 cells [6]): further inhibited | degree of apoptosis (TUNEL) [7]: increased compared to the control group | MMP2 expression (western blot) [8]: decreased | iNOS (M1 marker) by IF (iNOS (M1 marker)): increased | PDCD4 expression (western blot) [9]: increased | band shift upon reaction with Neg-miRNA (negative control miRNA): no band shift was observed | mRNA expression of IL-12 (IL-12): promoted mRNA expression | CD31 (angiogenesis marker) expression (CD31): decreased compared to the control group | expression of miRNA-21 (RT-PCR) (miRNA-21 [10]): decreased the expression of miRNA-21 | Arginasel (M2 marker) by IF (Arginasel (M2 marker)): decreased | Timp3 expression (western blot) [11]: increased | mRNA expression of TNF-α (TNF-α): promoted mRNA expression | degree of intracellular uptake (B16 melanoma cells): greatly advantageous in intracellular delivery | cellular uptake when blocking with PD-L1 antibody (B16 melanoma cells; PD-L1 antibody blocking): cellular uptake decreased
